# According to patent publication US20140249135A1, “PIM KINASE INHIBITORS AND METHODS OF THEIR USE” (NOVARTIS AG, priority 2007, published 2014):
# Read-outs that look alike come from different tables or passages of the source.
# What was measured:
# Type in all cases: biochemical
# [1] = target: Pim2 kinase (Homo sapiens, UniProt Q9P1W9); experiment: Pim2 ATP depletion assay;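 further: Luciferase-based luminescent readout of ATP remaining after PIM2 phosphorylates a BAD peptide, final 5 nM enzyme, 4 µM ATP, 10 µM peptide, 2.5% DMSO, run to roughly half ATP consumption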
# [2] = target: Pim1 kinase (Homo sapiens, UniProt P11309); experiment: Pim1 ATP depletion assay; conditions: Pim1 ATP depletion assay;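 further: Luciferase-luciferin luminescence readout of residual ATP after PIM1 transfers phosphate to a peptide substrate, 40 µM ATP added, reaction run to roughly half ATP consumption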
# [3] = target: Pim3 kinase (Homo sapiens, UniProt Q86V86); experiment: Pim3 ATP depletion assay
# Chain of Pim2 kinase (Q9P1W9 whole entry): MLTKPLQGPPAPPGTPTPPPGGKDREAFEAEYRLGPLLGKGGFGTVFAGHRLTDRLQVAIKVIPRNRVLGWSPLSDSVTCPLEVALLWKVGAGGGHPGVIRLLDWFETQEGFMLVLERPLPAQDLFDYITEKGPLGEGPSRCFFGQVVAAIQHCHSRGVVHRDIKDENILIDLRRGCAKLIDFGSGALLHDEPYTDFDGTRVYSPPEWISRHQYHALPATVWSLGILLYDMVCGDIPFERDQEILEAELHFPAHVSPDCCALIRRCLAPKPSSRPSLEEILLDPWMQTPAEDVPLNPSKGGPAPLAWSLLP
# Chain of Pim1 kinase (P11309 whole entry): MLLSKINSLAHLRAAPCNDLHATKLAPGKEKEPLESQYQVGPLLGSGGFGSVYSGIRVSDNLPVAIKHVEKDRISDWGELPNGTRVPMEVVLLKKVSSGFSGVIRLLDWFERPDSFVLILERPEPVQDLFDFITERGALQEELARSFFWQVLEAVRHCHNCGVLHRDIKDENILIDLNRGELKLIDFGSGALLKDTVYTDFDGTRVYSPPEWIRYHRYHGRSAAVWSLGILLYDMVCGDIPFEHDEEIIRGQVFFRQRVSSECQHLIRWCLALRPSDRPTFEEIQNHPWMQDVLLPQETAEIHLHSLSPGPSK
IC50 ([1]; read-out: IC50 (μM) PIM2),IC50 ([2]; read-out: IC50 (μM) PIM1),IC50 ([3]; read-out: IC50 (μM) PIM3),IC50 ([1]; read-out: PIM2 IC50),IC50 ([2]; read-out: PIM1 IC50),IC50 ([3]; read-out: PIM3 IC50),Structure (SMILES)
< 1 µM,< 1 µM,< 1 µM,,,,"N[C@H]1CCCN(c2ccncc2NC(=O)c2ccc(F)c(-c3ccccc3F)n2)C1 [Example 444, 5-Fluoro-6-(2-fluoro-phenyl)-pyridine-2-carboxylic acid (3-amino-3,4,5,6-tetrahydro-2H-[1,4′]bipyridinyl-3′-yl)-amide]"
< 1 µM,< 1 µM,< 1 µM,,,,"Nc1ccc(-c2c(F)cccc2F)nc1C(=O)Nc1cnccc1N1C[C@@H](N)C[C@@H](F)C1 [Example 293, 3-Amino-6-(2,6-difluoro-phenyl)-pyridine-2-carboxylic acid (3-amino-5-fluoro-3,4,5,6-tetrahydro-2H-[1,4′]bipyridinyl-3′-yl)-amide]"
< 1 µM,< 1 µM,< 1 µM,,,,"Cc1ccc(-c2ccc(N)c(C(=O)Nc3cnccc3N3CCC[C@H](N)C3)n2)c(F)n1 [Example 476, 5-Amino-2′-fluoro-6′-methyl-[2,3′]bipyridinyl-6-carboxylic acid (3-amino-3,4,5,6-tetrahydro-2H-[1,4′]bipyridinyl-3′-yl)-amide]"
,,,< 1 µM,< 1 µM,< 1 µM,"Cc1ccnc(-c2ccc(N)c(C(=O)Nc3cnccc3N3CCC[C@H](N)C3)n2)c1F [Example 707, 5-Amino-3′-fluoro-4′-methyl-[2,2′]bipyridinyl-6-carboxylic acid (3-amino-3,4,5,6-tetra-hydro-2H-[1,4′]bipyridinyl-3′-yl)-amide]"
< 1 µM,< 1 µM,< 1 µM,,,,"Cc1cscc1-c1ccc(N)c(C(=O)Nc2cnccc2N2CCC[C@H](N)C2)n1 [Example 489, 3-Amino-6-(4-methyl-thiophen-3-yl)-pyridine-2-carboxylic acid (3-amino-3,4,5,6-tetrahydro-2H-[1,4′]bipyridinyl-3′-yl)-amide]"
< 1 µM,< 1 µM,< 1 µM,,,,"COc1ccc(F)c(-c2ccc(N)c(C(=O)Nc3cnccc3N3CCC[C@H](N)C3)n2)c1 [Example 470, 3-Amino-6-(2-fluoro-5-methoxy-phenyl)-pyridine-2-carboxylic acid (3-amino-3,4,5,6-tetrahydro-2H-[1,4′]bipyridinyl-3′-yl)-amide]"
,,,< 1 µM,< 1 µM,< 1 µM,"CCc1cccc(-c2ccc(N)c(C(=O)Nc3cnccc3-c3cc(N)nc(C)n3)n2)c1 [Example 555, 3-Amino-6-(3-ethyl-phenyl)-pyridine-2-carboxylic acid [4-(6-amino-2-methyl-pyrimidin-4-yl)-pyridin-3-yl]-amide]"
,,,< 1 µM,< 1 µM,< 1 µM,"Cc1cc(-c2ccncc2NC(=O)c2nc(-c3ccccc3F)ccc2N)cc(N)n1 [Example 624, 3-amino-N-(2′-amino-6′-methyl-4,4′-bipyridin-3-yl)-6-(2-fluorophenyl)pyridine-2-carboxamide]"
< 1 µM,< 1 µM,< 1 µM,,,,"CC(C)NC(=O)c1ccc(F)c(-c2ccc(N)c(C(=O)Nc3cnccc3N3CC[C@H](F)[C@H](N)C3)n2)c1 [Example 258, 3-Amino-6-(2-fluoro-5-isopropylcarbamoyl-phenyl)-pyridine-2-carboxylic acid (3-amino-4-fluoro-3,4,5,6-tetra-hydro-2H-[1,4′]bipyridinyl-3′-yl)-amide]"
,,,< 1 µM,< 1 µM,< 1 µM,"Nc1cc(F)c(-c2ncccc2Cl)nc1C(=O)Nc1cnccc1N1CCC[C@H](N)C1 [Example 743, 5-Amino-3′-chloro-3-fluoro-[2,2′]bipyridinyl-6-carboxylic acid (3-amino-3,4,5,6-tetra-hydro-2H-[1,4′]bipyridinyl-3′-yl)-amide]"
< 1 µM,< 1 µM,< 1 µM,,,,"CC1CC(N)CN(c2ccncc2NC(=O)c2nc(-c3ccccc3F)ccc2F)C1 (stereo not drawn) [Example 286, 3-Fluoro-6-(2-fluoro-phenyl)-pyridine-2-carboxylic acid (5-amino-3-methyl-3,4,5,6-tetra-hydro-2H-[1,4′]bipyridinyl-3′-yl)-amide]"
,,,< 1 µM,< 1 µM,< 1 µM,"Nc1cc(-c2ccncc2NC(=O)c2nc(C3CCCCC3)ccc2N)nc(C(F)(F)F)n1 [Example 633, 3-Amino-6-cyclohexyl-pyridine-2-carboxylic acid [4-(6-amino-2-trifluoro-methyl-pyrimidin-4-yl)-pyridin-3-yl]-amide]"
< 1 µM,< 1 µM,< 1 µM,,,,"COc1cc(-c2ccncc2NC(=O)c2nc(-c3cc(C(=O)NC(C)C)ccc3F)ccc2N)nc(N)n1 [Example 267, 3-Amino-6-(2-fluoro-5-isopropylcarbamoyl-phenyl)-pyridine-2-carboxylic acid [4-(2-amino-6-methoxy-pyrimidin-4-yl)-pyridin-3-yl]-amide]"
< 1 µM,< 1 µM,< 1 µM,,,,"CC(C)NC(=O)c1ccc(F)c(-c2cccc(C(=O)Nc3cnccc3N3CCC[C@H](N)C3)n2)c1 [Example 453, 6-(2-Fluoro-5-isopropylcarbamoyl-phenyl)-pyridine-2-carboxylic acid (3-amino-3,4,5,6-tetrahydro-2H-[1,4′]bipyridinyl-3′-yl)-amide]"
,,,< 1 µM,< 1 µM,< 1 µM,"Cc1ccc(N)c(C(=O)Nc2cnccc2N2CCC[C@H](N)C2)n1 [Example 637, 3-amino-N-{4-[(3S)-3-aminopiperidin-1-yl]pyridin-3-yl}-6-methylpyridine-2-carboxamide]"
,,,< 1 µM,< 1 µM,< 1 µM,"Cc1cc(-c2ccncc2NC(=O)c2nc(-c3cc(C(=O)NC(C)C)ccc3F)c(F)cc2N)nc(N)n1 [Example 560, 3-Amino-5-fluoro-6-(2-fluoro-5-isopropylcarbamoyl-phenyl)-pyridine-2-carboxylic acid [4-(2-amino-6-methyl-pyrimidin-4-yl)-pyridin-3-yl]-amide]"
,,,< 1 µM,< 1 µM,< 1 µM,"CC(C)NC(=O)c1ccc(F)c(-c2ccc(F)c(C(=O)Nc3cnccc3N3CCC[C@H](N)C3)n2)c1 [Example 569, 3-Fluoro-6-(2-fluoro-5-isopropylcarbamoyl-phenyl)-pyridine-2-carboxylic acid (3-amino-3,4,5,6-tetrahydro-2H-[1,4′]bipyridinyl-3′-yl)-amide]"
,,,< 1 µM,< 1 µM,< 1 µM,"Nc1ccc(-c2c(F)cccc2F)nc1C(=O)Nc1cnccc1N1CCCCC1 [Example 588, 3-amino-6-(2,6-difluoro-phenyl)-pyridine-2-carboxylic acid (3,4,5,6-tetrahydro-2H-[1,4′]bipyridinyl-3′-yl)-amide]"
,,,< 1 µM,< 1 µM,< 1 µM,"Nc1cc(-c2ccncc2NC(=O)c2nc(-c3ccccc3F)ccc2N)nc(N)n1 [Example 627, 3-amino-N-[4-(2,6-diaminopyrimidin-4-yl)pyridin-3-yl]-6-(2-fluorophenyl)pyridine-2-carboxamide]"
,,,< 1 µM,< 1 µM,< 1 µM,"COc1cc(-c2ccncc2NC(=O)c2nc(-c3c(F)cccc3F)ccc2N)cc(N)n1 [Example 608, 3-Amino-6-(2,6-difluoro-phenyl)-pyridine-2-carboxylic acid (6′-amino-2′-methoxy-[4,4′]bi-pyridinyl-3-yl)-amide]"
,,,< 1 µM,< 1 µM,< 1 µM,"CCNC(=O)c1ccc(F)c(-c2ncc(N)c(C(=O)Nc3cnccc3N3CCC[C@H](N)C3)n2)c1 [Example 540, 5-Amino-2-(5-ethylcarbamoyl-2-fluoro-phenyl)-pyrimidine-4-carboxylic acid (3-amino-3,4,5,6-tetrahydro-2H-[1,4′]bipyridinyl-3′-yl)-amide]"
< 1 µM,< 1 µM,< 1 µM,,,,"Nc1cc(F)c(-c2ccccc2)nc1C(=O)Nc1cnccc1N1CCC[C@H](N)C1 [Example 499, 3-Amino-5-fluoro-6-phenyl-pyridine-2-carboxylic acid (3-amino-3,4,5,6-tetrahydro-2H-[1,4′]bipyridinyl-3′-yl)-amide]"
,,,< 1 µM,< 1 µM,< 1 µM,"Cc1cc(-c2ccncc2NC(=O)c2nc(-c3nccs3)ccc2N)cc(N)n1 [Example 641, 3-amino-N-(2′-amino-6′-methyl-4,4′-bipyridin-3-yl)-6-(1,3-thiazol-2-yl)pyridine-2-carboxamide]"
,,,< 1 µM,< 1 µM,< 1 µM,"Nc1ccc(-c2ccc(Cl)cn2)nc1C(=O)Nc1cnccc1N1CCC[C@H](N)C1 [Example 713, 5-Amino-5′-chloro-[2,2′]bi-pyridinyl-6-carboxylic acid (3-amino-3,4,5,6-tetrahydro-2H-[1,4′]bipyridinyl-3′-yl)-amide]"
,,,< 1 µM,< 1 µM,< 1 µM,"CSc1nc(N)cc(-c2ccncc2NC(=O)c2nc(-c3c(F)ccc(OC(C)C)c3F)ccc2N)n1 [Example 536, 3-Amino-6-(2,6-difluoro-3-isopropoxy-phenyl)-pyridine-2-carboxylic acid [4-(6-amino-2-methylsulfanyl-pyrimidin-4-yl)-pyridin-3-yl]-amide]"

Structure (SMILES),IC50 ([1]; read-out: IC50 (μM) PIM2),IC50 ([2]; read-out: IC50 (μM) PIM1),IC50 ([3]; read-out: IC50 (μM) PIM3),IC50 ([1]; read-out: PIM2 IC50),IC50 ([2]; read-out: PIM1 IC50),IC50 ([3]; read-out: PIM3 IC50)
"CCCCOc1ccc(F)c(-c2ccc(N)c(C(=O)Nc3cnccc3N3CCC[C@H](N)C3)n2)c1F [Example 466, 3-Amino-6-(3-butoxy-2,6-difluoro-phenyl)-pyridine-2-carboxylic acid (3-amino-3,4,5,6-tetrahydro-2H-[1,4′]bipyridinyl-3′-yl)-amide]",< 1 µM,< 1 µM,< 1 µM,,,
"CCCCOc1ccc(F)c(-c2nc(C(=O)Nc3cnccc3N3CCC[C@H](N)C3)c(N)cc2F)c1F [Example 506, 3-Amino-6-(3-butoxy-2,6-difluoro-phenyl)-5-fluoro-pyridine-2-carboxylic acid (3-amino-3,4,5,6-tetrahydro-2H-[1,4′]bipyridinyl-3′-yl)-amide]",< 1 µM,< 1 µM,< 1 µM,,,
